In patent publication US20260242391A1 (priority 2023, published 2026):

Legend:
in vitro = conditions: human
HL-60 = HL-60 differentiation potency; type: cell-based; conditions: Homo sapiens

| Structure (SMILES) | IC50 (in vitro) [nM] | EC50 (HL-60) [nM] |
| --- | --- | --- |
| C[C@H]1[C@@H](OCC23CCC(C(=O)O)(CC2)CC3)O[C@@H]2O[C@@]3(C)CC[C@H]4[C@H](C)CC[C@@H]1[C@@]24OO3 [Compound 75, 4-((((3R,5aS,6R, 8aS,9R,10S,12R, 12aR)-3,6,9-trimethyldeca-hydro-12H-3,12-epoxy[1,2]dioxepino[4,3-i]isochromen-10-yl)oxy)methyl) bicyclo[2.2.2] octane-1-carboxylic acid] | > 20000 | 1180 |
| C[C@H]1[C@@H](OC2C3CC(C(=O)O)CC32)O[C@@H]2O[C@@]3(C)CC[C@H]4[C@H](C)CC[C@@H]1[C@@]24OO3 (stereo partly drawn) [Compound 158, 6-(((3R,5aS,6R,8aS, 9R,10S,12R, 12aR)-3,6,9-trimethyldeca-hydro-12H-3,12-epoxy[1,2]dioxepino[4,3-i]isochromen-10-yl)oxy)bicyclo [3.1.0]hexane-3-carboxylic acid] | > 20000 | 4250 |
| C[C@H]1[C@@H](OCC#Cc2ccc(C(=O)O)cc2F)O[C@@H]2O[C@@]3(C)CC[C@H]4[C@H](C)CC[C@@H]1[C@@]24OO3 [Compound 165, 3-fluoro-4-(3-(((3R,5aS,6R,8aS, 9R,10S,12R, 12aR)-3,6,9-trimethyldeca-hydro-12H-3,12-epoxy[1,2]dioxepino[4,3-i]isochromen-10-yl)oxy)prop-1-yn-1-yl) benzoic acid] | 300 | 79.5 |
| C[C@H]1[C@@H](Oc2ccc(C(C)(C)C(=O)O)cc2Cl)O[C@@H]2O[C@@]3(C)CC[C@H]4[C@H](C)CC[C@@H]1[C@@]24OO3 [Compound 180, 2-(3-chloro-4-(((3R,5aS,6R,8aS, 9R,10S,12R, 12aR)-3,6,9-trimethyldeca-hydro-12H-3,12-epoxy[1,2]dioxepino[4,3-i]isochromen-10-yl)oxy)phenyl)-2-methylpropanoic acid] | 160 | 40.2 |
| C[C@H]1[C@@H](OCc2ccc(C(=O)O)c(F)c2)O[C@@H]2O[C@@]3(C)CC[C@H]4[C@H](C)CC[C@@H]1[C@@]24OO3 [Compound 24, 2-fluoro-4-((((3R,5aS,6R,8aS, 9R,10S,12R, 12aR)-3,6,9-trimethyldeca-hydro-12H-3,12-epoxy[1,2]dioxepino[4,3-i]isochromen-10-yl)oxy)methyl) benzoic acid] | > 20000 | 210 |
| C[C@H]1[C@@H](OCc2ccc(C(=O)O)c(Cl)c2)O[C@@H]2O[C@@]3(C)CC[C@H]4[C@H](C)CC[C@@H]1[C@@]24OO3 [Compound 33, 2-chloro-4-((((3R,5aS,6R, 8aS,9R,10S,12R, 12aR)-3,6,9-trimethyldeca-hydro-12H-3,12-epoxy[1,2]dioxepino[4,3-i]isochromen-10-yl)oxy)methyl) benzoic acid] | > 20000 | 343 |
| C[C@H]1[C@@H](OCC2CC3C(C2)C3C(=O)O)O[C@@H]2O[C@@]3(C)CC[C@H]4[C@H](C)CC[C@@H]1[C@@]24OO3 (stereo partly drawn) [Compound 181, 3-((((3R,5aS,6R,8aS, 9R,10S,12R, 12aR)-3,6,9-trimethyldeca-hydro-12H-3,12-epoxy[1,2]dioxepino[4,3-i]isochromen-10-yl)oxy)methyl) bicyclo[3.1.0] hexane-6-carboxylic acid] | > 20000 | 140 |
| C[C@H]1[C@H](OCc2ccc(C(=O)O)c(F)c2)O[C@@H]2O[C@@]3(C)CC[C@H]4[C@H](C)CC[C@@H]1[C@@]24OO3 [Compound 39, 2-fluoro-4-((((3R,5aS,6R,8aS, 9R,10R,12R, 12aR)-3,6,9-trimethyldeca-hydro-12H-3,12-epoxy[1,2]dioxepino[4,3-i]isochromen-10-yl)oxy)methyl) benzoic acid] | > 20000 | 631 |
| C[C@H]1[C@H](NCCS(=O)(=O)N(C)C)O[C@@H]2O[C@@]3(C)CC[C@H]4[C@H](C)CC[C@@H]1[C@@]24OO3 [Compound 59, N,N-dimethyl-2-(((3R,5aS,6R, 8aS,9R,10R,12R, 12aR)-3,6,9-trimethyldeca-hydro-12H-3,12-epoxy[1,2]dioxepino[4,3-i]isochromen-10-yl)amino) ethane-1-sulfonamide] | 11000 | 9630 |

Further lines, results first:

| IC50 (in vitro) [nM] | EC50 (HL-60) [nM] | Structure (SMILES) |
| --- | --- | --- |
| 11000 | 8190 | C[C@H]1[C@@H](Nc2cccc(F)c2)O[C@@H]2O[C@@]3(C)CC[C@H]4[C@H](C)CC[C@@H]1[C@@]24OO3 [Compound 56, (3R,5aS,6R,8aS, 9R,10S,12R, 12aR)-N-(3-fluorophenyl)-3,6,9-trimethyldeca-hydro-12H-3,12-epoxy[1,2] dioxepino[4,3-i] isochromen-10-amine] |
| > 20000 | > 20000 | C[C@H]1[C@H](N2CCCCC2)O[C@@H]2O[C@@]3(C)CC[C@H]4[C@H](C)CC[C@@H]1[C@@]24OO3 [Compound 63, 1-((3R,5aS,6R,8aS, 9R,10R,12R, 12aR)-3,6,9-trimethyldeca-hydro-12H-3,12-epoxy[1,2]dioxepino[4,3-i]isochromen-10-yl)piperidine] |
| > 20000 | > 20000 | C[C@H]1[C@@H](OC[C@H]2C[C@@H](C(=O)O)C[C@@H](C(=O)O)C2)O[C@@H]2O[C@@]3(C)CC[C@H]4[C@H](C)CC[C@@H]1[C@@]24OO3 [Compound 147, (1R,3S,5r)-5-((((3R,5aS,6R,8aS, 9R,10S,12R, 12aR)-3,6,9-trimethyldeca-hydro-12H-3,12-epoxy[1,2]dioxepino[4,3-i]isochromen-10-yl)oxy)methyl) cyclohexane-1,3-dicarboxylic acid] |
| > 20000 | 2410 | Cc1cc(CO[C@@H]2O[C@@H]3O[C@@]4(C)CC[C@H]5[C@H](C)CC[C@@H]([C@H]2C)[C@@]35OO4)ccc1C(=O)O [Compound 51, 2-methyl-4-((((3R,5aS,6R,8aS, 9R,10R,12R, 12aR)-3,6,9-trimethyldeca-hydro-12H-3,12-epoxy[1,2]dioxepino[4,3-i]isochromen-10-yl)oxy)methyl) benzoic acid] |
| > 20000 | 110 | C[C@H]1[C@@H](OCc2ccc(C(=O)O)cc2Cl)O[C@@H]2O[C@@]3(C)CC[C@H]4[C@H](C)CC[C@@H]1[C@@]24OO3 [Compound 119, 3-chloro-4-((((3R,5aS,6R, 8aS,9R,10S,12R, 12aR)-3,6,9-trimethyldeca-hydro-12H-3,12-epoxy[1,2]dioxepino[4,3-i]isochromen-10-yl)oxy)methyl) benzoic acid] |
| > 20000 | 217 | C[C@H]1[C@@H](Oc2ccc(C(=O)O)c(F)c2)O[C@H]2O[C@@]3(C)CC[C@H]4[C@H](C)CC[C@@H]1[C@@]24OO3 [Compound 25, 2-fluoro-4-(((3R,5aS,6R,8aS, 9R,10S,12S, 12aR)-3,6,9-trimethyldeca-hydro-12H-3,12-epoxy[1,2]dioxepino[4,3-i]isochromen-10-yl)oxy)benzoic acid] |
| > 20000 | 13400 | C[C@H]1[C@H](OCc2ccc(C(=O)O)o2)O[C@@H]2O[C@@]3(C)CC[C@H]4[C@H](C)CC[C@@H]1[C@@]24OO3 [Compound 61, 5-((((3R,5aS,6R, 8aS,9R,10R,12R, 12aR)-3,6,9-trimethyldeca-hydro-12H-3,12-epoxy[1,2]dioxepino[4,3-i]isochromen-10-yl)oxy)methyl) furan-2-carboxylic acid] |
| 200 | 48.4 | C[C@H]1[C@H](OCC2CCC(F)(F)CC2)O[C@@H]2O[C@@]3(C)CC[C@H]4[C@H](C)CC[C@@H]1[C@@]24OO3 [Compound 105, (3R,5aS,6R,8aS, 9R,10R,12R, 12aR)-10-((4,4-difluorocyclo-hexyl)methoxy)-3,6,9-trimethyldeca-hydro-12H-3,12-epoxy[1,2] dioxepino[4,3-i] isochromene] |
